From patent US12398154B2, “Azaquinazoline pan-KRas inhibitors” (Mirati Therapeutics, Inc., priority 2020, dated 2025) come the findings set out here.

Assay [1] deals with pERK in H460 cells. Kind of assay: Inhibition of KRas phosphorylation of ERK (Cisbio HTRF pERK assay). The settings on record: Homo sapiens, NCI-H460, read-out: Inhibition (HTRF IC50) of KRas-mediated Phosphorylation of ERK, H460.
Assay [2] concerns pERK in H358 cells. Described as above. As to conditions: Homo sapiens, NCI-H358, read-out: Inhibition (HTRF IC50) of KRas-mediated Phosphorylation of ERK, H358.
Assay [3] has as its target KRas G12V (Homo sapiens, UniProt P01116, G12V). In words: biochemical.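 Further: KRas binding measured by TR-FRET displacement at room temperature, IC50 fitted from percent of control values.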
Assay [4] has as its system pERK in A549 cells. In words: Inhibition of KRas phosphorylation of ERK (Cisbio HTRF pERK assay). The settings on record: Homo sapiens, A549, read-out: Inhibition (HTRF IC50) of KRas-mediated Phosphorylation of ERK, A549.
The target of assay [5] is KRas G12D (Homo sapiens, UniProt P01116, G12D). In words: biochemical.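 Further: TR-FRET displacement binding assay on KRas, read after a one-hour incubation at room temperature, IC50 fitted from percent-of-control values.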
KRas G12D, sequence (P01116 1-169 isoform P01116-2 G12D): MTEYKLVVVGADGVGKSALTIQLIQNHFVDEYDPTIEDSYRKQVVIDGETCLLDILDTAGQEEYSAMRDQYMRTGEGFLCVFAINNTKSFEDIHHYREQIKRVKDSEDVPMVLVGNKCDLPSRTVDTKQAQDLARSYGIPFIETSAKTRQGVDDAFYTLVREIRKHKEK
In assay [6] the test system is pERK in MKN1 cells. Kind of assay: Inhibition of KRas phosphorylation of ERK (Cisbio HTRF pERK assay). As to conditions: Homo sapiens, MKN-1, 3 h, read-out: Inhibition (HTRF IC50) of KRas-mediated Phosphorylation of ERK, MKN1. Background: TR-FRET usually uses a lanthanide donor and a delayed reading to cut background.
Assay [7] concerns pERK in ASPC1 cells. The assay is described as above. As to conditions: Homo sapiens, ASPC1, read-out: Inhibition (HTRF IC50) of KRas-mediated Phosphorylation of ERK, AsPC-1.
The test system of assay [8] is pERK in PSN1 cells. The assay is described as above. As to conditions: Homo sapiens, PSN1, 3 h, read-out: Inhibition (HTRF IC50) of KRas-mediated Phosphorylation of ERK, PSN1.
Assay [9] deals with pERK in HCT116 cells. The assay is described as above. The settings on record: Homo sapiens, HCT-116, read-out: Inhibition (HTRF IC50) of KRas-mediated Phosphorylation of ERK, HCT116.
Assay [10] deals with pERK in H727 cells. The assay is described as above. The settings on record: Homo sapiens, NCI-H727, read-out: Inhibition (HTRF IC50) of KRas-mediated Phosphorylation of ERK, H727.
For assay [11], the target named is KRas G12R (Homo sapiens, UniProt P01116, G12R). In words: biochemical.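 Further: TR-FRET displacement assay of compound binding to KRas, read after one hour at room temperature, potency from a four-parameter fit of percent-of-control values.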
KRas G12R, sequence (P01116 1-169 isoform P01116-2 G12R): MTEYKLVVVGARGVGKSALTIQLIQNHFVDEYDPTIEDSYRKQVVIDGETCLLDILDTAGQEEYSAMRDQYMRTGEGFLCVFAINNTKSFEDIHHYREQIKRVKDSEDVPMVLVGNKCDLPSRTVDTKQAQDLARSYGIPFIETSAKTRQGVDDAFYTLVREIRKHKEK

KRas G12V, sequence (P01116 1-169 isoform P01116-2 G12V): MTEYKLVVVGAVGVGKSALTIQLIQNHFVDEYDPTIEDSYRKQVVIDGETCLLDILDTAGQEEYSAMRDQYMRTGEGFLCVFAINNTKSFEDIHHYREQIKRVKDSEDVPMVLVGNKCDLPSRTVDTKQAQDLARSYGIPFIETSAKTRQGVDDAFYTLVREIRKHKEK

A word on the IC50: it is the concentration needed to halve the response being measured. With `CCc1c(F)ccc2cc(O)cc(-c3ncc4c(N5CCC[C@@](C)(O)C5)nc(OC[C@@]56CCCN5[C@H](COC(=O)N5CCOCC5)CC6)nc4c3F)c12` [Example 511, ((3S,7aS)-7a-(((7-(8-ethyl-7-fluoro-3-hydroxynaphthalen-1-yl)-8-fluoro-4-((R)-3-hydroxy-3-methylpiperidin-1-yl)pyrido[4,3-d]pyrimidin-2-yl)oxy)methyl)hexahydro-1H-pyrrolizin-3-yl)methyl morpholine-4-carboxylate], the IC50 in assay [1] was 27 nM; in assay [2], 6 nM; in assay [3], no more than 2 nM; in [4], 23 nM; in assay [5], no more than 2 nM; in assay [6], 2 nM. The IC50 is 8 nM in [7]; 1040 nM in assay [8]; 45 nM in [9]; 25 nM in assay [10]; no more than 2 nM in assay [11].

Take `CCc1c(F)ccc2cc(O)cc(-c3ncc4c(N5CCCSCC5)nc(OC[C@@]56CCCN5C[C@H](F)C6)nc4c3F)c12` [Example 342, 5-ethyl-6-fluoro-4-(8-fluoro-2-(((2R,7aS)-2-fluorohexahydro-1H-pyrrolizin-7a-yl)methoxy)-4-(1,4-thiazepan-4-yl)pyrido[4,3-d]pyrimidin-7-yl)naphthalen-2-ol]: the IC50 in assay [1] is 203 nM; in assay [2] it was 62 nM; in assay [3], no more than 2 nM; in assay [4], 167 nM; in [5], 3 nM; in [6], 4 nM. Further, the IC50 in assay [7] was 23 nM; in [8], 2240 nM; in assay [9], 470 nM; in assay [10], 46 nM; in assay [11], no more than 2 nM.

`CCc1c(F)ccc2cc(O)cc(-c3ncc4c(N5CCOC[C@@]6(C5)CC6(F)F)nc(OC[C@@]56CCCN5C[C@H](F)C6)nc4c3F)c12` [Example 498, 4-(4-((S)-1,1-difluoro-5-oxa-8-azaspiro[2.6]nonan-8-yl)-8-fluoro-2-(((2R,7aS)-2-fluorohexahydro-1H-pyrrolizin-7a-yl)methoxy)pyrido[4,3-d]pyrimidin-7-yl)-5-ethyl-6-fluoronaphthalen-2-ol]: the IC50 in assay [1] was 66 nM; in [2], 21 nM; in [3], 3 nM; in assay [4] it was 48 nM; in assay [5] it was 5 nM; in assay [6], 13 nM. In addition, the IC50 in assay [7] is 47 nM; in assay [8] it was no less than 10000 nM; in [9], 168 nM; in assay [10] it was 64 nM; in [11], 3 nM.

`Oc1cc(-c2ncc3c(N4CCCC5(CC(O)C5)C4)nc(OC[C@@]45CCCN4C[C@H](F)C5)nc3c2F)c2c(Br)c(F)ccc2c1` (stereo partly drawn) [Example 407, 6-(7-(8-bromo-7-fluoro-3-hydroxynaphthalen-1-yl)-8-fluoro-2-(((2R,7aS)-2-fluorohexahydro-1H-pyrrolizin-7a-yl)methoxy)pyrido[4,3-d]pyrimidin-4-yl)-6-azaspiro[3.5]nonan-2-ol]: the IC50 in assay [1] was 26 nM; in [2] it was 3 nM; in assay [3] it was no more than 2 nM; in assay [4] it was 27 nM; in assay [5] it was no more than 2 nM; in assay [6], 15 nM. The IC50 in assay [7] is 27 nM; in assay [8] it was 1330 nM; in [9] it was 41 nM; in assay [10], 15 nM; in [11], no more than 2 nM.

As to `CCc1c(F)ccc2cc(O)cc(-c3ncc4c(N5CCCn6nc(NC)cc6C5)nc(OC[C@@]56CCCN5C[C@H](F)C6)nc4c3F)c12` [Example 340, 5-ethyl-6-fluoro-4-(8-fluoro-2-(((2R,7aS)-2-fluorohexahydro-1H-pyrrolizin-7a-yl)methoxy)-4-(2-(methylamino)-7,8-dihydro-4II-pyrazolo[1,5-a][1,4]diazepin-5(6H)-yl)pyrido[4,3-d]pyrimidin-7-yl)naphthalen-2-ol], the IC50 in [1] was 373 nM; in assay [2], 55 nM; in assay [3] it was no more than 2 nM; in [4], 353 nM; in assay [5], no more than 2 nM; in [6] it was 26 nM. Besides, the IC50 in assay [7] was 39 nM; in assay [8], no less than 10000 nM; in [9], 999 nM; in [10], 149 nM; in [11] it was no more than 2 nM.

In the case of `CCc1c(F)ccc2cc(O)cc(-c3ncc4c(N5C[C@@H](CO)C[C@](C)(O)C5)nc(OC[C@@]56CCCN5C[C@H](F)C6)nc4c3F)c12` (mixture of isomers) [Example 327, (3RS,5RS)-1-(7-(8-ethyl-7-fluoro-3-hydroxynaphthalen-1-yl)-8-fluoro-2-(((2R,7aS)-2-fluorotetrahydro-1H-pyrrolizin-7a(5H)-yl)methoxy)pyrido[4,3-d]pyrimidin-4-yl)-5-(hydroxymethyl)-3-methylpiperidin-3-ol], the IC50 is 206 nM in [1]; 10 nM in assay [2]; no more than 2 nM in assay [3]; 238 nM in assay [4]; no more than 2 nM in assay [5]; 14 nM in assay [6]. For the same compound, the IC50 was 23 nM in assay [7]; 6690 nM in [8]; 381 nM in assay [9]; 98 nM in [10]; no more than 2 nM in assay [11].

For the compound `CCc1c(F)ccc2cc(O)cc(-c3ncc4c(N5CCOCC(C)(CO)C5)nc(OC[C@@]56CCCN5C[C@H](F)C6)nc4c3F)c12` (stereo partly drawn) [Example 496, 5-ethyl-6-fluoro-4-(8-fluoro-2-(((2R,7aS)-2-fluorotetrahydro-1H-pyrrolizin-7a(5H)-yl)methoxy)-4-(6-(hydroxymethyl)-6-methyl-1,4-oxazepan-4-yl)pyrido[4,3-d]pyrimidin-7-yl)naphthalen-2-ol], the IC50 in assay [1] was found to be 245 nM; in [2] it was 117 nM; in assay [3] it was 11 nM; in [4], 261 nM; in [5], 24 nM; in assay [6], 68 nM. Moreover, the IC50 in assay [7] was 95 nM; in [8] it was 8290 nM; in [9], 525 nM; in [10], 407 nM; in assay [11], 6 nM.

For `CCc1c(F)ccc2cc(O)cc(-c3ncc4c(N5CCCC6(CSC6)C5)nc(OC[C@@]56CCCN5C[C@H](F)C6)nc4c3F)c12` [Example 365, 5-ethyl-6-fluoro-4-(8-fluoro-2-(((2R,7aS)-2-fluorohexahydro-1H-pyrrolizin-7a-yl)methoxy)-4-(2-thia-6-azaspiro[3.5]nonan-6-yl)pyrido[4,3-d]pyrimidin-7-yl)naphthalen-2-ol], the IC50 in [1] is 17 nM; in [2] it was 6 nM; in [3], no more than 2 nM; in [4] it was 11 nM; in assay [5] it was no more than 2 nM; in [6], 10 nM. The IC50 in [7] was 17 nM; in assay [8], 2860 nM; in assay [9], 77 nM; in [10], 24 nM; in assay [11] it was no more than 2 nM.
